Measurements reported in patent US20070248967A1, “Reporter Assay Using Secrectory Luminescent Enzymes” (NATIONAL INSTITUTE OF ADVANCED INDUSTRIAL SCIENCE, priority 2005, published 2007).
Values belong to the molecule of their own block, whether it stands above or below them.

Key:
CLuc [1] = assay: Influences of various chemical substances on CLuc activity measurement; format: biochemical, Cypridina noctiluca; details: highly concentrated chemical substance added to culture supernatant; FIG. 6
Description: For the CLuc activity measurement, an LB960 luminometer (Berthold) was used.
The measurement values were divided by absorbance of the culture solution at 600 nm such that CLuc activity subjected to a correction of the number of yeast cell bodies was obtained.
Influences of chemical substances on CLuc activity measurement were examined, as such substances coexist with yeast culture supernatants upon CLuc activity measurement following the secretory expression of CLuc in yeasts.
Chemical substances (2 μl) that had been adjusted to have different concentrations were separately added to 20 μl of the prepared culture supernatant, followed by CLuc activity measurement.
The relative residual activity of each sample is represented by the mean value and the standard deviation on the condition that the CLuc activity of a sample to which a chemical substance was not added is determined to be 100%.

CUP1 promoter = assay: CuSO4 induction experiment, reporter assay using mCLuc or β-galactosidase; format: cell-based, Saccharomyces cerevisiae; details: 0.025 mM CuSO4-containing medium, pmCLuRA-CUP1 (8 hours) / pGALuRA-CUP1 (16 hours); FIGS. 13A, 13B
Protocol: It has been known that the expression of the CUP1 gene (systematic gene name: YHR053C) of Saccharomyces cerevisiae is induced in the presence of copper ions (Gene, 48, 13-22 (1986)). That is, a CUP1 promoter is a copper-ion-inducible promoter. Thus, with the use of pmCLuRA-CUP1, it was examined whether or not such induction would be observed in the case of mCLuc. In addition, a similar experiment was carried out using β-galactosidase. The results of both experiments were compared and examined.
Three clones of a transformant comprising pmCLuRA-CUP1 and those of a transformant comprising pGALuRA-CUP1 described above were separately introduced into a synthetic liquid medium (SD+KHLadeW 200 mM KPi). Each resultant was shake-cultured overnight at 30° C. until the stationary phase.
Subsequently, 5 μl of the culture solution containing a transformant comprising pmCLuRA-CUP1 was introduced into each well of a 96-deep well plate, with 1 ml of a 0.025 mM CuSO4-containing synthetic liquid medium (SD+KHLadeW 200 mM KPi) or a CuSO4-free synthetic liquid medium (SD+KHLadeW 200 mM KPi) having been added to such well. This was followed by shake culture at 30° C. 8 hours after the initiation of culture, a portion of the culture solution was recovered, followed by measurement of absorbance at 600 nm (OD600) and relative light units (RLU) from a luminometer in accordance with the method in Example 1. […]

CLuc [2] = details: final concentration in reaction solution, 100 mM Tris-HCl pH 7.4; FIG. 3
Protocol: In addition, a stock solution of the culture supernatant of the transformant comprising pCLuRA-TDH3 was separately serial-diluted 10-fold, 100-fold, 1000-fold, and 10000-fold with an SD medium containing a 100 mM phosphate buffer solution so that the resulting diluted culture supernatants were used. Specifically, the concentration of the culture supernatant stock solution was determined to be 100% such that 10-fold, 100-fold, 1000-fold, and 10000-fold diluted culture supernatants had supernatant concentrations of 10%, 1%, 0.1%, and 0.01%, respectively.
Then, CLuc activity measurement was carried out as with the case of Example 1.
In FIG. 3, plots indicate results obtained by using culture supernatants that had been serial-diluted with a culture supernatant stock solution (100%) with reaction solutions with different final concentrations of luciferin.

GAL1 promoter = assay: Galactose induction experiment, reporter assay using mCLuc or β-galactosidase; format: cell-based, Saccharomyces cerevisiae; details: 2% galactose-containing medium without glucose, 32 hours, pmCLuRA-GAL1 / pGALuRA-GAL1; FIGS. 14A, 14B
Protocol: It has been known that the expression of GAL1 gene (systematic gene name: YBR020W) of Saccharomyces cerevisiae is induced in the absence of glucose and the presence of galactose (West, R. W. J. et al., Mol. Cell. Biol., 4: 2467-2478 (1984)). That is, a GAL1 promoter is a galactose-inducible promoter. Thus, with the use of pmCLuRA-GAL1, it was examined whether or not such induction would be observed in the case of mCLuc. In addition, a similar experiment was carried out using β-galactosidase. The results of both experiments were compared and examined.
Three clones of a transformant comprising pmCLuRA-GAL1 and those of a transformant comprising pGALuRA-GAL1 described above were separately introduced into a synthetic liquid medium (SD+KHLadeW 200 mM KPi). […]
Subsequently, 20 μl of the culture solution containing a transformant comprising pmCLuRA-GAL1 was introduced into each well of a 96-deep well plate, with 1 ml of a 2% galactose-containing synthetic liquid medium (SC+KHLadeW (prepared by removing glucose from SD+KHLWade in Example 1) 200 mM KPi) or a synthetic liquid medium (SD+KHLadeW 200 mM KPi) having been added to such well. […] 32 hours after the initiation of culture, a portion of the culture solution was recovered, followed by measurement of absorbance at 600 nm (OD600) and relative light units (RLU) from a luminometer in accordance with the method in Example 1. […]

[3] = Stability of CLuc activity after sampling of culture solutions; format: physicochemical; details: culture solution incubated at 25° C. for 30 minutes; FIG. 8
Protocol: Thus, in order to examine the stability of CLuc activity after sampling of culture solutions, a transformant comprising pCLuRA-TDH3 prepared in Example 1 was cultured as with the case of Example 1. Then, the yeast culture solution was partially collected (sampling), followed by incubation at 25° C. for 0, 10, 20, and 30 minutes. After incubation, the CLuc activity of each culture solution sample was measured as with the case of Example 1.
In FIG. 8, CLuc activity is shown as the relative residual activity based on the CLuc activity of a sample that was measured immediately after sampling (100%).

[4] = Stability of CLuc in yeast culture supernatants; format: physicochemical
Protocol: The prepared culture supernatants were incubated at 0° C., 25° C., 40° C., and 50° C. for 0, 15, 30, and 60 minutes, respectively, followed by CLuc activity measurement.
In FIG. 4, each plot indicates the mean value and the standard deviation of relative residual activities of each sample subjected to incubation at a given temperature for a given period of time. The vertical axis denotes the relative residual activity based on the CLuc activity (100%) of a sample that had not been incubated.

Molecule: O=S(=O)([O-])[O-].[Cu+2] [CuSO4]
- inhibition of the enzyme activity of CLuc (relative residual activity) (CLuc [1]): inhibited
- transcription induction of the CUP1 promoter (CUP1 promoter): transcription induction

Molecule: CC[C@H](C)c1nc2c(CCCNC(=N)N)[nH]c(-c3c[nH]c4ccccc34)cn-2c1=O [Cypridina luciferin]
- final luciferin concentration at which CLuc activity reaches a saturation point (CLuc [2]): ≥ 1 µM

- inhibition of the enzyme activity of CLuc (relative residual activity) (CLuc [1]): inhibited
Molecule: CCO [ethanol]

Molecule: O=C[C@H](O)[C@@H](O)[C@@H](O)[C@H](O)CO [galactose]
- transcription induction of the GAL1 promoter (GAL1 promoter): transcription induction

B1: CLuc: Cypridina noctiluca-secretory luciferase (SEQ ID NO: 2); secreted from yeast as αCLuc with α-factor signal peptide (protein, listed as Cypridina noctiluca)
chain: MKTLILAVALVYCATVHCQDCPYEPDPPNTVPTSCEAKEGECIDSSCGTCTRDILSDGLCENKPGKTCCRMCQYVIECRVEAAGWFRTFYGKRFQFQEPGTYVLGQGTKGGDWKVSITLENLDGTKGAVLTKTRLEVAGDIIDIAQATENPITVNGGADPIIANPYTIGEVTIAVVEMPGFNITVIEFFKLIVIDILGGRSVRIAPDTANKGMISGLCGDLKMMEDTDFTSDPEQLAIQPKINQEFDGCPLYGNPDDVAYCKGLLEPYKDSCRNPINFYYYTISCAFARCMGGDERASHVLLDYRETCAAPETRGTCVLSGHTFYDTFDKARYQFQGPCKEILMAADCFWNTWDVKVSHRNVDSYTEVEKVRIRKQSTVVELIVDGKQILVGGEAVSVPYSSQNTSIYWQDGDILTTAILPEALVVKFNFKQLLVVHIRDPFDGKTCGICGNYNQDFSDDSFDAEGACDLTPNPPGCTEEQKPEAERLCNSLFAGQSDLDQKCNVCHKPDRVERCMYEYCLRGQQGFCDHAWEFKKECYIKHGDTLEVPDECK
modifications: α-factor signal peptide
- change in CLuc activity after sampling (relative residual activity) [3]: almost no change
- stability of CLuc as an enzyme (relative residual activity) ([4]; culture supernatant incubated at 0, 25, 40, 50° C. for 0-60 minutes, FIG. 4): highly stable
- stability of CLuc at room temperature ([4]; culture supernatant, room temperature, 15 minutes after sampling): stable
